One assay deals with HDAC6 human recombinant (Homo sapiens (Human), UniProt Q9UBN7). The experiment in a line: HDAC enzyme activity inhibition (in vitro), HDAC6 fluorimetric assay. The assay is classed as biochemical. The note with it: samples at 0.1-1000 nM; 37° C. 60 minutes; fluorescence Ex 390 nm, Em 460 nm. As for the experimental part:
Confirmation of HDAC Enzyme Activity Inhibition (In Vitro)
(§1) An HDAC enzyme inhibitory capacity of test material was measured by using HDAC1 Fluorimetric Drug Discovery Assay Kit (Enzolifesciences: BML-AK511) and HDAC6 human recombinant (Calbiochem: 382180). For a HDAC1 assay, samples were treated at a concentration of 100 nM, 1000 nM and 10000 nM. For an HDAC6 assay, samples were treated at a concentration of 0.1 nM, 1 nM, 10 nM, 100 nM and 1000 nM. After the sample treatment, a reaction was continued at 37° C. for 60 minutes, treated with a developer, and subjected to reaction at 37° C. for 30 minutes, after which fluorescence intensity (Ex 390 nm, Em 460 nm) was measured by using FlexStation3 (Molecular device). For final result values, each […] value was calculated with GraphPad Prism 4.0 program.

Another assay addresses HDAC1 (Homo sapiens (Human), UniProt Q13547). Description: HDAC enzyme activity inhibition (in vitro), HDAC1 Fluorimetric Drug Discovery Assay Kit. The assay is classed as biochemical. The note with it: samples at 100, 1000 and 10000 nM; 37° C. 60 minutes; fluorescence Ex 390 nm, Em 460 nm. Here is the method: Experimental Example 1. Confirmation of HDAC Enzyme Activity Inhibition (In Vitro)
as §1

For 24 molecules, IC50 results are on record in patent US20240208956A1, “1,3,4-OXADIAZOLE THIOCARBONYL COMPOUNDS AS HISTONE DEACETYLASE 6 INHIBITOR, AND PHARMACEUTICAL COMPOSITION COMPRISING THE SAME” (CHONG KUN DANG PHARMACEUTICAL CORP., priority 2021, published 2024).

Bounds are passed on as bounds.

HDAC1, sequence (Q13547 whole entry): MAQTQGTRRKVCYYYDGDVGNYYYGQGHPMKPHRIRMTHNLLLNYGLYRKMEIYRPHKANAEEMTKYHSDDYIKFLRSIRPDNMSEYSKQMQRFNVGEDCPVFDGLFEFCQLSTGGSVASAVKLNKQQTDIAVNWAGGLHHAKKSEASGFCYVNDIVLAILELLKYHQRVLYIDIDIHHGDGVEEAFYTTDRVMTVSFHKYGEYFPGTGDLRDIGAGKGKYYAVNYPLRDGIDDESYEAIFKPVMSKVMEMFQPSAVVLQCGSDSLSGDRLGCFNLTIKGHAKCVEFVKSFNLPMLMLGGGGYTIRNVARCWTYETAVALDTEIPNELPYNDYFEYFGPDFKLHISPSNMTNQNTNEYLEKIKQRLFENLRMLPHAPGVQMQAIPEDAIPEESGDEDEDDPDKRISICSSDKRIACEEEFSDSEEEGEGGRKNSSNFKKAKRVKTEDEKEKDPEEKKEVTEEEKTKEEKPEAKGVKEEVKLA
HDAC6 human recombinant, sequence (Q9UBN7 whole entry): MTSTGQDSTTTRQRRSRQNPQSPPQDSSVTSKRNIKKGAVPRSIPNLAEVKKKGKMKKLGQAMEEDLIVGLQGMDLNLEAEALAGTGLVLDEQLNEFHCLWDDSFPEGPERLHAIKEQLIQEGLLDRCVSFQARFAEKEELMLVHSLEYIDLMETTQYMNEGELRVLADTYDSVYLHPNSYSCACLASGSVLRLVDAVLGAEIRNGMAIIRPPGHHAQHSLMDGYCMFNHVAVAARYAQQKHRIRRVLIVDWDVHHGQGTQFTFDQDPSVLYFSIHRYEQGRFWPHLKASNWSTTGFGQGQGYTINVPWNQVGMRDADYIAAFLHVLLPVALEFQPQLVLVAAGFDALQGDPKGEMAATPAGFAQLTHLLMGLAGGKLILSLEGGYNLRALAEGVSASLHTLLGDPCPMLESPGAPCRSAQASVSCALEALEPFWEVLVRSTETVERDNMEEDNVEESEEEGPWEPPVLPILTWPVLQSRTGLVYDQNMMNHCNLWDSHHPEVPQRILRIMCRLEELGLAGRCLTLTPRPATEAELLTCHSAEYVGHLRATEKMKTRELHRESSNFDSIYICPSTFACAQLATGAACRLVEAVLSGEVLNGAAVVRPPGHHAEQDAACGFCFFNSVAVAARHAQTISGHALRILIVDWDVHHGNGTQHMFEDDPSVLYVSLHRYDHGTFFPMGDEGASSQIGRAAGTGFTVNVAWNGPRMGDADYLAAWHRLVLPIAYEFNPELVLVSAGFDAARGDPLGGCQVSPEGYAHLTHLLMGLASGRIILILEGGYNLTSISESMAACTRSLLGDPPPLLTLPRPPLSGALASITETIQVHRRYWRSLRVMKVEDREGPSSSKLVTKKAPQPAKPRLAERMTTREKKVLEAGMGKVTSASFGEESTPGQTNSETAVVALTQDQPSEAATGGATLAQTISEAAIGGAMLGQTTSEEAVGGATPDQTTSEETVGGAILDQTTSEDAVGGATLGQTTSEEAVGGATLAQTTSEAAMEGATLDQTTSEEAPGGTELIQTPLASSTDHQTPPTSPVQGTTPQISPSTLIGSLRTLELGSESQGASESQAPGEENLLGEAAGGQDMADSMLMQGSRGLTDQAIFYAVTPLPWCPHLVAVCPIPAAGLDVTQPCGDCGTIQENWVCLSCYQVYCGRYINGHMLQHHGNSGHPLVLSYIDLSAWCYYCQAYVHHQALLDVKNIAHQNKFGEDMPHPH

For the molecule `Fc1cc(-c2nnc(C(F)F)o2)ccc1CN(C(=S)N1CC2(C1)CN(C1COC1)C2)c1ccccc1` [Compound 11, N-(4-(5-(difluoromethyl)-1,3,4-oxadiazol-2-yl)-2-fluorobenzyl)-6-(oxetan-3-yl)-N-phenyl-2,6-diazaspiro[3.3]heptan-2-carbothioamide], the 50% inhibitory concentration (IC50) at HDAC6 human recombinant is 50 nM; on HDAC1, greater than 10000 nM. In the same order, the values of `CC(C)N1CC2(CN(C(=S)N(Cc3ccc(-c4nnc(C(F)F)o4)cc3)c3ccc(F)c(Cl)c3)C2)C1` [Compound 29, N-(3-chloro-4-fluorophenyl)-N-(4-(5-(difluoromethyl)-1,3,4-oxadiazol-2-yl)benzyl)-6-isopropyl-2,6-diazaspiro[3.3]heptan-2-carbothioamide] are 70 nM and greater than 10000 nM.

With `CC(C)N1CC2(CN(C(=S)N(Cc3ccc(-c4nnc(C(F)F)o4)cc3)c3ccc(F)c(F)c3)C2)C1` [Compound 31, N-(4-(5-(difluoromethyl)-1,3,4-oxadiazol-2-yl)benzyl)-N-(3,4-difluorophenyl)-6-isopropyl-2,6-diazaspiro[3.3]heptan-2-carbothioamide], the figures for the half-inhibitory concentration (IC50) on HDAC6 human recombinant and at HDAC1 were 35 nM and greater than 10000 nM, respectively.

Take `Fc1ccc(N(Cc2ccc(-c3nnc(C(F)F)o3)cc2F)C(=S)N2C[C@@H]3C[C@H]2CN3C2COC2)cc1` [Compound 41, (1S,4S)—N-(4-(5-(difluoromethyl)-1,3,4-oxadiazol-2-yl)-2-fluorobenzyl)-N-(4-fluorophenyl)-5-(oxetan-3-yl)-2,5-diazabicyclo[2.2.1]heptan-2-carbothioamide]: the IC50 was 73 nM on HDAC6 human recombinant and greater than 10000 nM at HDAC1. On the same counts, the results for `CC(C)N1CC2(CN(C(=S)N(Cc3ccc(-c4nnc(C(F)F)o4)cc3F)c3cccc(F)c3)C2)C1` [Compound 37, N-(4-(5-(difluoromethyl)-1,3,4-oxadiazol-2-yl)-2-fluorobenzyl)-N-(3-fluorophenyl)-6-isopropyl-2,6-diazaspiro[3.3]heptan-2-carbothioamide] are 67 nM and greater than 10000 nM.

In the case of `CN1CCC2(CC1)CN(C(=S)N(Cc1ccc(-c3nnc(C(F)F)o3)cc1F)c1ccc(F)c(F)c1)C2` [Compound 46, N-(4-(5-(difluoromethyl)-1,3,4-oxadiazol-2-yl)-2-fluorobenzyl)-N-(3,4-difluorophenyl)-7-methyl-2,7-diazaspiro[3.5]nonan-2-carbothioamide], the IC50 on HDAC6 human recombinant is 28 nM; against HDAC1, greater than 10000 nM. In the same order, the values of `CC(C)N1C[C@@H]2C[C@H]1CN2C(=S)N(Cc1ccc(-c2nnc(C(F)F)o2)cc1F)c1ccc(F)cc1` [Compound 40, (1S,4S)—N-(4-(5-(difluoromethyl)-1,3,4-oxadiazol-2-yl)-2-fluorobenzyl)-N-(4-fluorophenyl)-5-isopropyl-2,5-diazabicyclo[2.2.1]heptan-2-carbothioamide] are 55 nM and greater than 10000 nM. On to `CN1C[C@@H]2C[C@H]1CN2C(=S)N(Cc1ccc(-c2nnc(C(F)F)o2)cc1F)c1ccc(F)cc1` [Compound 39, (1S,4S)—N-(4-(5-(difluoromethyl)-1,3,4-oxadiazol-2-yl)-2-fluorobenzyl)-N-(4-fluorophenyl)-5-methyl-2,5-diazabicyclo[2.2.1]heptan-2-carbothioamide], for which the IC50 on HDAC6 human recombinant is 30 nM; against HDAC1 it was greater than 10000 nM.

As to `CN1CC2(C1)CN(C(=S)N(Cc1ccc(-c3nnc(C(F)F)o3)cc1)c1cccc(F)c1)C2` [Compound 14, N-(4-(5-(difluoromethyl)-1,3,4-oxadiazol-2-yl)benzyl)-N-(3-fluorophenyl)-6-methyl-2,6-diazaspiro[3.3]heptan-2-carbothioamide], the figures for the half-inhibitory concentration (IC50) at HDAC6 human recombinant and at HDAC1 were 39 nM and greater than 10000 nM, respectively.

In the case of `FC(F)c1nnc(-c2ccc(CN(C(=S)N3CCOCC3)c3ccccc3)cc2)o1` [Compound 3, N-(4-(5-(difluoromethyl)-1,3,4-oxadiazol-2-yl)benzyl)-N-phenylmorpholin-4-carbothioamide], the IC50 at HDAC6 human recombinant is 37 nM; against HDAC1, greater than 10000 nM. Turning to `Fc1ccc(N(Cc2ccc(-c3nnc(C(F)F)o3)cc2)C(=S)N2CC3(C2)CN(C2COC2)C3)cc1F` [Compound 32, N-(4-(5-(difluoromethyl)-1,3,4-oxadiazol-2-yl)benzyl)-N-(3,4-difluorophenyl)-6-(oxetan-3-yl)-2,6-diazaspiro[3.3]heptan-2-carbothioamide], the half-inhibitory concentration (IC50) on HDAC6 human recombinant was 45 nM; at HDAC1, greater than 10000 nM. Regarding `CN1CC2(C1)CN(C(=S)N(Cc1ccc(-c3nnc(C(F)F)o3)cc1F)c1ccc(F)cc1)C2` [Compound 17, N-(4-(5-(difluoromethyl)-1,3,4-oxadiazol-2-yl)-2-fluorobenzyl)-N-(4-fluorophenyl)-6-methyl-2,6-diazaspiro[3.3]heptan-2-carbothioamide], the figures for the IC50 on HDAC6 human recombinant and on HDAC1 were 41 nM and greater than 10000 nM, respectively. With `FC(F)c1nnc(-c2ccc(CN(C(=S)N3CCOCC3)c3ccccc3)nc2)o1` [Compound 2, N-((5-(5-(difluoromethyl)-1,3,4-oxadiazol-2-yl)pyridin-2-yl)methyl)-N-phenylmorpholin-4-carbothioamide], the concentration for half-maximal inhibition (IC50) at HDAC6 human recombinant was 66 nM; against HDAC1, greater than 10000 nM. `Fc1ccc(N(Cc2ccc(-c3nnc(C(F)F)o3)cc2)C(=S)N2CC3(C2)CN(C2COC2)C3)cc1Cl` [Compound 27, N-(3-chloro-4-fluorophenyl)-N-(4-(5-(difluoromethyl)-1,3,4-oxadiazol-2-yl)benzyl)-6-(oxetan-3-yl)-2,6-diazaspiro[3.3]heptan-2-carbothioamide]: the IC50 is 112 nM on HDAC6 human recombinant and greater than 10000 nM at HDAC1. On the same counts, the results for `CN1CC2(C1)CN(C(=S)N(Cc1ccc(-c3nnc(C(F)F)o3)cc1)c1ccc(F)c(Cl)c1)C2` [Compound 26, N-(3-chloro-4-fluorophenyl)-N-(4-(5-(difluoromethyl)-1,3,4-oxadiazol-2-yl)benzyl)-6-methyl-2,6-diazaspiro[3.3]heptan-2-carbothioamide] are 89 nM and greater than 10000 nM. On the same counts, the results for `CN1CC2(C1)CN(C(=S)N(Cc1ccc(-c3nnc(C(F)F)o3)cc1F)c1ccc(F)c(F)c1)C2` [Compound 13, N-(4-(5-(difluoromethyl)-1,3,4-oxadiazol-2-yl)-2-fluorobenzyl)-N-(3,4-difluorophenyl)-6-methyl-2,6-diazaspiro[3.3]heptan-2-carbothioamide] are 76 nM and greater than 10000 nM. On HDAC1, `Fc1cc(-c2nnc(C(F)F)o2)ccc1CN(C(=S)N1CCOCC1)c1ccccc1` [Compound 1, N-(4-(5-(difluoromethyl)-1,3,4-oxadiazol-2-yl)-2-fluorobenzyl)-N-phenylmorpholin-4-carbothioamide] registered an IC50 greater than 10000 nM. On to `Fc1ccc(N(Cc2ccc(-c3nnc(C(F)F)o3)cc2F)C(=S)N2CCC3(CC2)CN(C2COC2)C3)cc1F` [Compound 45, N-(4-(5-(difluoromethyl)-1,3,4-oxadiazol-2-yl)-2-fluorobenzyl)-N-(3,4-difluorophenyl)-2-(oxetan-3-yl)-2,7-diazaspiro[3.5]nonan-7-carbothioamide], for which the half-inhibitory concentration (IC50) on HDAC6 human recombinant was 196 nM; on HDAC1 it was greater than 10000 nM. As for `CC(C)N1CC2(CN(C(=S)N(Cc3ccc(-c4nnc(C(F)F)o4)cc3)c3cccc(F)c3)C2)C1` [Compound 16, N-(4-(5-(difluoromethyl)-1,3,4-oxadiazol-2-yl)benzyl)-N-(3-fluorophenyl)-6-isopropyl-2,6-diazaspiro[3.3]heptan-2-carbothioamide], the results for the IC50 at HDAC6 human recombinant and at HDAC1 were 63 nM and greater than 10000 nM, respectively.

Turning to `CN1CC2(C1)CN(C(=S)N(Cc1ccc(-c3nnc(C(F)F)o3)cc1)c1ccc(F)cc1)C2` [Compound 20, N-(4-(5-(difluoromethyl)-1,3,4-oxadiazol-2-yl)benzyl)-N-(4-fluorophenyl)-6-methyl-2,6-diazaspiro[3.3]heptan-2-carbothioamide], the IC50 on HDAC6 human recombinant was 60 nM; against HDAC1 it was greater than 10000 nM. `CC(C)N1CC2(CN(C(=S)N(Cc3ccc(-c4nnc(C(F)F)o4)cc3F)c3ccc(F)cc3)C2)C1` [Compound 18, N-(4-(5-(difluoromethyl)-1,3,4-oxadiazol-2-yl)-2-fluorobenzyl)-N-(4-fluorophenyl)-6-isopropyl-2,6-diazaspiro[3.3]heptan-2-carbothioamide]: the 50% inhibitory concentration (IC50) on HDAC6 human recombinant was 61 nM; at HDAC1, greater than 10000 nM. Turning to `CN1CCN(C(=S)N(Cc2ccc(-c3nnc(C(F)F)o3)cc2F)c2ccccc2)CC1` [Compound 7, N-(4-(5-(difluoromethyl)-1,3,4-oxadiazol-2-yl)-2-fluorobenzyl)-4-methyl-N-phenylpiperazin-1-carbothioamide], at HDAC1, the 50% inhibitory concentration (IC50) is greater than 10000 nM. Still for that read-out and setting: with `Fc1ccc(N(Cc2ccc(-c3nnc(C(F)F)o3)cc2F)C(=S)N2CC3(COC3)C2)cc1F` [Compound 35, N-(4-(5-(difluoromethyl)-1,3,4-oxadiazol-2-yl)-2-fluorobenzyl)-N-(3,4-difluorophenyl)-2-oxa-6-azaspiro[3.3]heptan-6-carbothioamide] the figure was greater than 10000 nM; with `CN1C[C@@H]2C[C@H]1CN2C(=S)N(Cc1ccc(-c2nnc(C(F)F)o2)cc1F)c1ccc(F)c(F)c1` [Compound 42, (1S,4S)—N-(4-(5-(difluoromethyl)-1,3,4-oxadiazol-2-yl)-2-fluorobenzyl)-N-(3,4-difluorophenyl)-5-methyl-2,5-diazabicyclo[2.2.1]heptan-2-carbothioamide], greater than 10000 nM.
